# Like-named read-outs stand apart in the source and are kept apart here.
# Assays:
# interleukin 1β (IL-1β) = assay: Inflammatory cytokines in cell supernatant (Mosaic ELISA microarray): IL-1β; format: cell-based, Human; details: for IL-1β ng/(ml* No. of cells from photo) ± SD: 24 hours
# interleukin 6 (IL-6) = assay: Inflammatory cytokines in cell supernatant (Mosaic ELISA microarray): IL-6; format: cell-based, Human; details: for IL-6 ng/(ml* No. of cells from photo) ± SD: 24 hours
# HDF cells [1] = assay: Summary of uses and toxic effects deduced from the cell assays (Table 1); format: cell-based, Human; details: for Anti-fibrotic (prevention of scar formation, also from acne) / Cytoprotective (antioxidant, anti-inflammatory and anti-ageing; useful also in the treatment of acne) / Cytotoxic / Irritant / Wound-healing: 24 hours
# Outline: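 HDF cells exposed to test substances at a given dosage for 24 h; uses and toxicity inferred from free-radical scavenging, mitochondrial dehydrogenase activity, IL-1β/IL-6 production (basal or induced by 100 µM H2O2), proliferation under standard growth conditions, and senescence-like morphology.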
# [2] = test system: collagen produced by HDF cells; assay: Quantity of collagen produced by the cells (elution of Sirius Red)
# HDF cells [3] = assay: Evaluation of cell morphology (Sirius Red stained cells, microscopy); format: cell-based, Human
# Protocol: Their morphology, colour and shape have been evaluated by using the ImageJ software program.
# The results of the effects on cell morphology, produced by the treatment with the test compounds for 24 hours at the concentrations specified, in HDF cells stained for collagen with PSR are shown in Figures 4a-d, 5a-d and 6a-f. These Figures allow evaluating cell morphology through light microscopy observation at magnifications of 100x, 200x and 400x for HDF cells cultured under standard growth conditions, in the presence of 100 µM H2O2 and in the presence of 34 ng/ml TGF-β1.
# [4] = test system: Human dermal fibroblasts (HDF); assay: Mitochondrial dehydrogenase activity (WST-1 formazan assay) in HDF cells; details: for mitochondrial dehydrogenase activity (effect in words): 1 µM; for Revitalizing agent: 24 hours; for activity at 1 µM / activity at 10 µM: Homo sapiens, Fibroblast, read-out: % mitochondrial dehydrogenase activity ± SD
# Protocol: Human dermal fibroblasts were used for assay at the 3rd T75 passage.
# Mitochondrial dehydrogenase activity was measured in HDF, HEK and HUVEC cells by means of the formazan assay, using the WST-1 kit from Roche Diagnostic in accordance with the supplier's instructions. Briefly: the reagent was added (10 µl per well), the incubation was carried out for a further 2 hours or 4 hours, and, at the end of this time, the absorbance was read for 1 s at a wavelength of 450 nm in a Perkin Elmer Victor 2 Wallac microplate reader.
# The activity percentage (% mitochondrial dehydrogenase activity) is defined as: % mitochondrial dehydrogenase activity = ((absorbance of treated cells - absorbance of blank) / (absorbance of control - absorbance of blank)) x 100.
# The tests were performed with observations after 18 hours, seeding 8,000 cells per well, and after 42 hours, seeding 2,000 cells per well. Furthermore, in order to better analyze the dose/response curves for dihydroberberine, canadine and stylopine, curves were collected at 11 concentrations by seeding 2,000 cells per well with 46 hours incubation.
# Dose/response curves are plotted at 6 concentrations. The tests were performed with observations after 24 hours, seeding 8,000 cells per well.
# HDF cells [5] = assay: Evaluation of cell proliferation (counting of Sirius Red stained cells in photographs); details: for No. of cells from photo ± SD: 24 hours
# [6] = Anti-radical activity (decay of the DPPH radical); format: biochemical; details: for Anti-radical (skin protective): 24 hours
# Outline: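 Test substance in ethanol mixed 1:1 with 200 µM DPPH (stock concentrations), in quadruplicate. Absorbance read at 530 nm after 30 min, with vitamin C and ethanol-only controls. IC50 from variable-slope Hill regression of dose-activity curves.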
# [7] = Dose 1 µm (coptisine: 1 pm [sic])
smiles,measurement,setting,value
CN1Cc2c(ccc3c2OCO3)[C@@H]2[C@H]1c1cc3c(cc1C[C@@H]2O)OCO3 [chelidonine],IL-1β production (effect in words),"interleukin 1β (IL-1β); 1 µM, 34 ng/ml TGF-β1",antagonizes the production of IL-1β
same,IL-1β ng/(ml* No. of cells from photo) ± SD,"interleukin 1β (IL-1β); 1 µM, 34 ng/ml TGF-β1",127±26 ng/(ml* No. of cells from photo)
same,IL-1β production (effect in words),"interleukin 1β (IL-1β); 1 µM, 100 µM H2O2",antagonizes the production of IL-1β
same,IL-1β ng/(ml* No. of cells from photo) ± SD,"interleukin 1β (IL-1β); 1 µM, 100 µM H2O2",115±8 ng/(ml* No. of cells from photo)
same,IL-1β ng/(ml* No. of cells from photo) ± SD,"interleukin 1β (IL-1β); 1 µM, Standard conditions",666±30 ng/(ml* No. of cells from photo)
same,IL-1β production (effect in words),"interleukin 1β (IL-1β); 1 µM, standard conditions",inhibits the production of IL-1β
same,IL-1β production (effect in words),"interleukin 1β (IL-1β); 10 µM, 34 ng/ml TGF-β1",stimulates IL-1β production
same,IL-1β ng/(ml* No. of cells from photo) ± SD,"interleukin 1β (IL-1β); 10 µM, 34 ng/ml TGF-β1",363±27 ng/(ml* No. of cells from photo)
same,IL-1β production (effect in words),"interleukin 1β (IL-1β); 10 µM, 100 µM H2O2",stimulates IL-1β production
same,IL-1β ng/(ml* No. of cells from photo) ± SD,"interleukin 1β (IL-1β); 10 µM, 100 µM H2O2",366±35 ng/(ml* No. of cells from photo)
same,IL-1β ng/(ml* No. of cells from photo) ± SD,"interleukin 1β (IL-1β); 10 µM, Standard conditions",17500±700 ng/(ml* No. of cells from photo)
same,IL-1β production (effect in words),"interleukin 1β (IL-1β); 10 µM, standard conditions",stimulates IL-1β production
same,IL-6 production (effect in words),"interleukin 6 (IL-6); 1 µM, 34 ng/ml TGF-β1",antagonizes the production of IL-6
same,IL-6 ng/(ml* No. of cells from photo) ± SD,"interleukin 6 (IL-6); 1 µM, 34 ng/ml TGF-β1",620±72 ng/(ml* No. of cells from photo)
same,IL-6 production (effect in words),"interleukin 6 (IL-6); 1 µM, 100 µM H2O2",antagonizes the production of IL-6
same,IL-6 ng/(ml* No. of cells from photo) ± SD,"interleukin 6 (IL-6); 1 µM, 100 µM H2O2",697±87 ng/(ml* No. of cells from photo)
same,IL-6 ng/(ml* No. of cells from photo) ± SD,"interleukin 6 (IL-6); 1 µM, Standard conditions",2883±553 ng/(ml* No. of cells from photo)
same,IL-6 production (effect in words),"interleukin 6 (IL-6); 1 µM, standard conditions",inhibits the production of IL-6
same,IL-6 production (effect in words),"interleukin 6 (IL-6); 10 µM, 34 ng/ml TGF-β1",stimulates IL-6 production
same,IL-6 ng/(ml* No. of cells from photo) ± SD,"interleukin 6 (IL-6); 10 µM, 34 ng/ml TGF-β1",1231±76 ng/(ml* No. of cells from photo)
same,IL-6 production (effect in words),"interleukin 6 (IL-6); 10 µM, 100 µM H2O2",stimulates IL-6 production
same,IL-6 ng/(ml* No. of cells from photo) ± SD,"interleukin 6 (IL-6); 10 µM, 100 µM H2O2",1990±32 ng/(ml* No. of cells from photo)
same,IL-6 ng/(ml* No. of cells from photo) ± SD,"interleukin 6 (IL-6); 10 µM, Standard conditions",38100±8300 ng/(ml* No. of cells from photo)
same,IL-6 production (effect in words),"interleukin 6 (IL-6); 10 µM, standard conditions",stimulates IL-6 production
same,"Anti-fibrotic (prevention of scar formation, also from acne)",HDF cells [1]; [7],"Yes (↓collagen, ↓IL-6, ↓IL-1β)"
same,"Cytoprotective (antioxidant, anti-inflammatory and anti-ageing; useful also in the treatment of acne)",HDF cells [1]; [7],"Yes (↓IL-6, ↓IL-1β)"
same,Cytotoxic,HDF cells [1]; [7],No
same,Irritant,HDF cells [1]; [7],No
same,Wound-healing,HDF cells [1]; [7],Yes (↓IL-1β)
same,"Anti-fibrotic (prevention of scar formation, also from acne)",HDF cells [1]; Dose 10 µm,No
same,"Cytoprotective (antioxidant, anti-inflammatory and anti-ageing; useful also in the treatment of acne)",HDF cells [1]; Dose 10 µm,No
same,Cytotoxic,HDF cells [1]; Dose 10 µm,"Yes (senescent morph., ↓dehydrogenase)"
same,Irritant,HDF cells [1]; Dose 10 µm,"Yes (↑IL-6, ↑IL-1β)"
same,Wound-healing,HDF cells [1]; Dose 10 µm,No
same,concentrations at which no toxic (cytotoxic and irritant) effects are shown,HDF cells [1]; exposure for 24 hours,less than or equal to 1 µM
same,collagen production (effect in words),"[2]; 1 µM, 34 ng/ml TGF-β1",tendency to antagonize collagen stimulation induced by TGF-β1
same,collagen production (effect in words),"[2]; 1 µM, 100 µM H2O2",tendency to inhibit collagen production
same,collagen production (effect in words),"[2]; 1 µM, standard conditions",no evident ability to modulate collagen production
same,collagen production (effect in words),"[2]; 10 µM, 34 ng/ml TGF-β1",stimulates collagen production
same,collagen production (effect in words),"[2]; 10 µM, 100 µM H2O2",stimulates collagen production
same,collagen production (effect in words),"[2]; 10 µM, standard conditions",stimulates collagen production
same,cell morphology,HDF cells [3]; 1 µM,No changes in cell morphology
same,cell morphology,HDF cells [3]; 10 µM,Very obvious changes in cell morphology
same,concentrations below which no significant effects on mitochondrial dehydrogenase activity are shown,[4],less than 0.1 µM
same,mitochondrial dehydrogenase activity (effect in words),[4]; 18 h,absence of effects
same,mitochondrial dehydrogenase activity (effect in words),[4]; increased exposure time,significant inhibition of mitochondrial dehydrogenase activity
same,Revitalizing agent,[4]; [7],No
same,Revitalizing agent,[4]; Dose 10 µm,No
same,activity at 1 µM,[4]; 18 h,105 ± 7.05%
same,activity at 10 µM,[4]; 18 h,89.3 ± 6.9%
same,activity at 1 µM,[4]; 42 h,64.7 ± 5.88%
same,activity at 10 µM,[4]; 42 h,30.3 ± 2.97%
same,inhibitory power toward the mitochondrial dehydrogenase activity,[4]; skin fibroblast cells and/or keratinocytes,marked inhibitory power
same,cell proliferation (effect in words),HDF cells [5]; 1 µM,no evident ability to modulate cell proliferation
same,No. of cells from photo ± SD,"HDF cells [5]; 1 µM, 34 ng/ml TGF-β1",184±25
same,No. of cells from photo ± SD,"HDF cells [5]; 1 µM, 100 µM H2O2",189±37
same,No. of cells from photo ± SD,"HDF cells [5]; 1 µM, Standard conditions",202±21
same,cell proliferation (effect in words),HDF cells [5]; 10 µM,marked inhibition of proliferation
same,No. of cells from photo ± SD,"HDF cells [5]; 10 µM, 100 µM H2O2",101±4
same,No. of cells from photo ± SD,"HDF cells [5]; 10 µM, Standard conditions",109±16
same,% DPPH activity,"[6]; 1 mM, 30 minutes",98%
same,Anti-radical (skin protective),[6]; [7],No
same,Anti-radical (skin protective),[6]; Dose 10 µm,No
